≈ marks a conversion by molar mass, not a printed value.
Experiments:
Format in all cases: functional, organism-based
Enterococcus faecium [1] = test: Compound was measured for the growth inhibition of S. faecium; NA means inactive
Lacticaseibacillus casei = test: Compound was measured for the growth inhibition of Lactobacillus casei up to concentration 4 ug/mL; NA means inactive
Enterococcus faecium [2] = test: Compound was measured for the growth inhibition of Streptococcus faecium; conditions: read-out: I50

Compound	I50 (Enterococcus faecium [1])	I50 (Lacticaseibacillus casei)	IC50 (Enterococcus faecium [2]) [µg/mL]
NC1=NC(=O)C2N=C(c3ccc(C(=O)NC(CCC(=O)O)C(=O)O)cc3)COC2N1 (centres undefined)	Not Active	Not Active	–
NC1=NC(=O)C2N=C(Cc3ccc(C(=O)NC(CCC(=O)O)C(=O)O)cc3)COC2N1 (centres undefined)	–	Not Active	1.4 (≈ 3.25 µM)
